In US9403806B1, “Cognition enhancing compounds and compositions, methods of making, and methods of treating” (NeuroSolis, Inc., priority 2010, dated 2016):

Target: T1, rat M1 receptors (Rattus norvegicus, UniProt P08482)
T1 construct: host or cells: CHO (M1-CHO)
T1 sequence (P08482 1-460): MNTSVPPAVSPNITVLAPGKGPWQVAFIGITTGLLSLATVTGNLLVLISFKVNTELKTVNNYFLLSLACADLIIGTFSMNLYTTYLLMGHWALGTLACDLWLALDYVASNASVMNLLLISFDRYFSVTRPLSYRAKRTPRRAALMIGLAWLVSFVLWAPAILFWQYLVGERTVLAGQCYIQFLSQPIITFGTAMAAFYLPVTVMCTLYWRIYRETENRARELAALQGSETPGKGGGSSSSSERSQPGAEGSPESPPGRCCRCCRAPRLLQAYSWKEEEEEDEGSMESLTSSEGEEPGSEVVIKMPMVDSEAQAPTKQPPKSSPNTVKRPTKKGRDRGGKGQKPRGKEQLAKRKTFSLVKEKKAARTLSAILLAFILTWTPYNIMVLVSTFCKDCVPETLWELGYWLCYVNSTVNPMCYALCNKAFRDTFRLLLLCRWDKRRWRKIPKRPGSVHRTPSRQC
Assay: PI turnover (inositol phosphate production) in M1-CHO cells
Type: cell-based
Conditions: mean Smax relative to carbachol (100.0); CHO cells expressing rat M1
Method: The medium was changed to 70 μL/well of inositol-free DMEM containing 2 mM glutamine, 10% FBS and 10 μCi/ml of [3H]-inositol (PE:cat # NET114A250UC), incubated overnight as above, then 100 μL of a solution of the test compound in HBSS containing 10 mM LiCl and 20 mM HEPES, pH 7.4 was added, incubation was continued for 60 min under the above conditions, and the test was stopped by removing the test compound and replacing with 100 μL of 50 mM formic acid in water at 4° C. […] The compounds in Table 1 are all dihydropyrimidine-oxadiazoles which vary only at the oxadiazole side chain.

SMILES: CCc1noc(C2CN=CNC2)n1 (stereo not shown) [MCD-386, 3-ethyl-5-(1,4,5,6-tetrahydropyrimidin-5-yl)-1,2,4-oxadiazole]
- M1/CHO PI turnover Relative Mean Smax: 70.0
